Assay results: PubChem BioAssay (NCI)
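In this assay, cells in 96-well plates receive the compound at five concentrations for 48 hours. Endpoints are linearly interpolated between the surrounding concentrations. TGI is the concentration that stops growth completely.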

Columns and labels:
Experiment in all cases: NCI-60 cell line screen, 48 h
A549 NSCLC = tested on: A549 NSCLC
HCT-15 colon = tested on: HCT-15 colon
HS 578T breast = tested on: HS 578T breast
MDA-N = tested on: MDA-N
NCI-H23 lung = tested on: NCI-H23 lung
OVCAR-4 ovarian = tested on: OVCAR-4 ovarian
SF-268 CNS = tested on: SF-268 CNS
SK-MEL-28 melanoma = tested on: SK-MEL-28 melanoma
UACC-257 melanoma = tested on: UACC-257 melanoma
UACC-62 melanoma = tested on: UACC-62 melanoma

Measured: TGI

O=C(O)c1ccc(N/C(=C(/C(Cl)=C(Cl)Cl)[N+](=O)[O-])n2nnc3ccccc32)cc1
> 100 µM: all assays above

C=CC[C@H](N=C(SC)SC)C(=O)N1C(=O)N(C)[C@@H](C)[C@H]1c1ccccc1
> 100 µM: all assays above
